{
  "source": "patent US5804410A",
  "about": "“Nucleic acid sequence encoding trypsin-like enzyme and process for producing the enzyme” (Teijin Limited, priority 1994, dated 1998)",
  "key": {"NDV Miyadera strain": {"system": "NDV Miyadera strain", "conditions": "cited from earlier work"}, "influenza viruses": {"system": "influenza viruses", "conditions": "in contrast to trypsin; cited from earlier work"}, "VSV New Jersey strain": {"system": "VSV New Jersey strain", "conditions": "cited from earlier work"}, "[1]": {"experiment": "Measurement of optimum pH of trypsin-like enzyme", "assay_type": "biochemical", "conditions": "at pH 6.0, relative to the enzyme at pH 7.6", "description": "50 μl of the solution of the trypsin-like protease obtained in Example 1 was added to 1.5 ml of 0.1M Tris-HCl buffer (pH 8.6) containing 100 μM of a synthetic substrate for trypsin Boc-Phe-Ser-Arg-MCA (MCA=methylcoumarinamide), and the mixture was subjected to incubation at 37° C. for 1 hour. 1 ml of 30% acetic acid was then added, the amount of 7-amino-4-methylcoumarin (AMC) formed was determined by fluorescent assay (fluorescence 440 nm, excitating light 380 nm), and the activity of the enzyme was calculated based thereon. An activity of forming 1 pM of AMC in 1 minute is defined as 1 unit (1 unit=1 pM AMC/min).\nThe following buffers were prepared for ascertaining trypsin activity at various pH values.\nThe activity of the trypsin-like enzyme obtained in Example 1 in each buffer was assayed according to the method described in Example 2, and the results are shown in FIG. 2."}, "trypsin-like enzyme": {"target": "T1, trypsin-like enzyme (Homo sapiens, UniProt O60235)", "T1 construct": "from tissue; host or cells: cough phlegm (sputum) of patients with chronic disease of the respiratory tract", "T1 sequence (O60235 187-418)": "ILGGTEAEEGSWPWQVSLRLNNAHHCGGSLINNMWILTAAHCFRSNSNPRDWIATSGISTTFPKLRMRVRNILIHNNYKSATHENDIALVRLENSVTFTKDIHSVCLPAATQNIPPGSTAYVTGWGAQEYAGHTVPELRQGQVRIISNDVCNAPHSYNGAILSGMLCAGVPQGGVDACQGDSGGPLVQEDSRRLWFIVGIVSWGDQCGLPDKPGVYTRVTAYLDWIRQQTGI", "experiment": "Substrate specificity, synthetic MCA substrates (assay method of trypsin activity)", "assay_type": "biochemical", "conditions": "synthetic substrates, pH 8.6"}, "fibrinogen": {"system": "fibrinogen", "experiment": "Influence of trypsin-like enzyme on thrombin-induced coagulation time of fibrinogen", "assay_type": "biochemical", "conditions": "fibrinogen 2 mg/ml, 37° C., thrombin 2.5 units/ml; in proportion as the added activity unit increases; FIG. 3", "description": "Fibrinogen was dissolved in 0.01M Tris-HCl buffer (pH 7.4), 0.01M CaCl2 0.15M NaCl so that its concentration could be 2 mg/ml, the trypsin-like enzyme obtained in Example 1 was added with its activity unit changed, the mixture was heated to 37° C., 0.1 ml of this reaction solution was mixed with 0.1 ml of a thrombin solution (2.5 units/ml), and coagulation time was measured on the mixture. In proportion as the added activity unit of the trypsin-like enzyme increases, coagulation time was prolonged."}},
  "data": [
    {"substance": "trypsin-like enzyme: protease isolated from cough phlegm of patients with chronic respiratory tract disease, amino acid sequence [I] (SEQ ID NO:19)", "values": [
      {"measurement": "action of inactivating NDV Miyadera strain", "setting": "NDV Miyadera strain", "value": "inactivating"},
      {"measurement": "action of inactivating influenza viruses", "setting": "influenza viruses", "value": "inactivating"},
      {"measurement": "action of inactivating VSV New Jersey strain", "setting": "VSV New Jersey strain", "value": "inactivating"},
      {"measurement": "Inactivation by pH", "setting": "[1]", "value": "about 80%"},
      {"measurement": "chymotrypsin activity, elastase activity, collagenase activity, leucine aminopeptidase activity of the enzyme", "setting": "trypsin-like enzyme", "value": "did not exhibit"},
      {"measurement": "coagulation time", "setting": "fibrinogen", "value": "prolonged"}
    ]}
  ]
}
